The test system of one data set is sugar beet. Kind of data set: Test Example 3: herbicidal test by upland soil treatment (phytotoxicity). Type of data set: in vivo. The following applies: evaluated twenty days after application. The text has this:
(§1) Into each plastic pot of 600 cm^2, upland soil was filled, then seeds of barnyardgrass, crabgrass, green foxtail, redroot pigweed, rice flatsedge, rice, wheat, maize, soybean, cotton and sugar beet were sown, and they were covered with soil. A predetermined amount of the wettable powder prepared from the test compound in accordance with Formulation Example 3 and diluted with water, was uniformly applied to the surface of the soil at an application rate of 1000 liter/hectare by means of a small size spray. They were grown in a greenhouse, and twenty days after the application, the herbicidal effects and phytotoxicity were evaluated in accordance with the standards as identified in Table 5.

The subject of another data set is green foxtail. Briefly: Test Example 3: herbicidal test by upland soil treatment. In kind it is in vivo, Setaria viridis L. The arrangement: key: 5: Withered; 4.5: Herbicidal effect (or phytotoxicity) in a range of 90 to 99%; 4: Herbicidal effect (or phytotoxicity) in a range of 80 to 89%; 3.5: Herbicidal effect (or phytotoxicity) in a range of 70 to 79%; 3: Herbicidal effect (or phytotoxicity) in a range of 60 to 69%; 2.5: Herbicidal effect (or phytotoxicity) in a range of 50 to 59%; 2: Herbicidal effect (or phytotoxicity) in a range of 40 to 49%; 1.5: Herbicidal effect (or phytotoxicity) in a range of 30 to 39%; 1: Herbicidal effect (or phytotoxicity) in a range of 20 to 29%; 0.5: Herbicidal effect (or phytotoxicity) in a range of 1 to 19%; 0: No herbicidal effect (or no phytotoxicity). Conditions: evaluated twenty days after application.
Description: as §1

On to `CN(C)C(=O)NOc1cc(Cl)ccc1Cl` [Compound No. 1, 3-(2,5-Dichlorophenoxy)-1,1-dimethyl urea], for which the “Phytotoxicity Sugar beet” value in the data set on sugar beet (Dose 1 kg/HA) is given as 2 (Herbicidal effect (or phytotoxicity) in a range of 40 to 49%); with sugar beet (Dose 4 kg/HA) it was 3 (Herbicidal effect (or phytotoxicity) in a range of 60 to 69%). Also, the “Herbicidal effects Green foxtail” value with green foxtail (Dose 1 kg/HA) and in the data set on green foxtail (Dose 4 kg/HA) was 5 throughout.

For the origin of these results see patent EP0183174A2, “Substituted phenoxy urea, processes for its preparation and herbicide containing it as active ingredient” (KUMIAI CHEMICAL INDUSTRY CO., LTD., priority 1984, dated 1986).
